Assay results taken from ChEMBL document CHEMBL5550189, “Discovery of GS-7682, a Novel 4'-Cyano-Modified C-Nucleoside Prodrug with Broad Activity against Pneumo- and Picornaviruses and Efficacy in RSV-Infected African Green Monkeys” (J Med Chem, 2024).
Calls of active or inactive are those of the source. The rule behind the calls is not given here.

Assays:
[1] = system: Respiratory syncytial virus; experiment: Antiviral activity against RSV infected in African green monkey assessed as reduction in viral load in BAL at lung-deposited dose of 1.6 to 7.6 mg/kg, IT qd for 6 days measured on day 7 to 9 by RT-qPCR analysis; format: functional, organism-based; settings: dose 1.6-7.6 mg/kg, time 9.0 day
[2] = system: Respiratory syncytial virus; experiment: Antiviral activity against RSV A2 infected in Normal human bronchial epithelial cells assessed as inhibition of intracellular virus replication; format: functional, organism-based; settings: A2, Epithelial cell
[3] = Cytotoxicity against human RD cells by MTS assay; format: toxicity, cell-based
[4] = Drug metabolism in Cynomolgous monkey assessed as AUC (0 to 24 hrs) of (2R,3S,4R,5S)-5-(4-aminopyrrolo[2,1-f][1,2,4]triazin-7-yl)-3,4-dihydroxy-2-(hydroxymethyl)tetrahydrofuran-2-carbonitrile metabolite at lung-deposited dose of 4 mg/kg, IT measured after 24 hrs by LC-MS/MS analysis; format: ADME, organism-based, Macaca fascicularis; settings: cynomolgus monkey, in vivo, other
enterovirus D68 = experiment: Anti-viral activity against EV-D68 (18952) infected in human RD cells by MTS assay; format: functional, organism-based; settings: Enterovirus D, 18952, RD
[5] = Cytotoxicity against Normal human bronchial epithelial cells; format: toxicity, cell-based, Epithelial cell
[6] = Cmax in Cynomolgous monkey at 5 mg/kg, iv measured after 30 mins by LC-MS/MS analysis; format: ADME, organism-based, Macaca fascicularis; settings: cynomolgus monkey, in vivo
[7] = Cytotoxicity against MDCK cells by MTS assay; format: toxicity, cell-based, Canis lupus familiaris; settings: dog
[8] = system: Respiratory syncytial virus; experiment: Antiviral activity against Fluc-fused RSV A2 infected in D-HBE-COPD cells incubated for 3 days by ONE Glo luciferase assay; format: functional, organism-based; settings: human respiratory syncytial virus, 72 h
[9] = system: Respiratory syncytial virus; experiment: Antiviral activity against RSV infected in African green monkey assessed as reduction in viral RNA copies in BAL at lung-deposited dose of 1.6 to 7.6 mg/kg, IT qd for 6 days measured for 3 to 11 days by RT-qPCR analysis; format: functional, organism-based; settings: dose 1.6-7.6 mg/kg, time 11.0 day
[10] = AUC (0 to 24 hrs) in African green monkey at lung-deposited dose of 5.9 mg/kg, IT measured after 24 hrs by LC-MS/MS analysis; format: ADME, organism-based; settings: chlorocebus aethiops, in vivo
[11] = Prodrug conversion in D-HBE-As cells assessed as ((2R,3S,4R,5S)-5-(4-aminopyrrolo[2,1-f][1,2,4]triazin-7-yl)-2-cyano-3,4-dihydroxytetrahydrofuran-2-yl)methyl tetrahydrogen triphosphate formation measured per million cells at 1 uM measured after 48 hrs by LC-MS/MS analysis; format: ADME, cell-based; settings: human
[12] = Drug metabolism in African green monkey assessed as Cmax of (2R,3S,4R,5S)-5-(4-aminopyrrolo[2,1-f][1,2,4]triazin-7-yl)-3,4-dihydroxy-2-(hydroxymethyl)tetrahydrofuran-2-carbonitrile metabolite at lung-deposited dose of 5.9 mg/kg, IT measured after 24 hrs by LC-MS/MS analysis; format: ADME, organism-based; settings: chlorocebus aethiops, in vivo, other
[13] = AUC (0 to 24 hrs) in Cynomolgous monkey at 5 mg/kg, iv measured after 30 mins by LC-MS/MS analysis; format: ADME, organism-based, Macaca fascicularis; settings: cynomolgus monkey, in vivo
[14] = Drug metabolism in Cynomolgous monkey assessed as half life of (2R,3S,4R,5S)-5-(4-aminopyrrolo[2,1-f][1,2,4]triazin-7-yl)-3,4-dihydroxy-2-(hydroxymethyl)tetrahydrofuran-2-carbonitrile metabolite at 5 mg/kg, iv measured after 30 mins by LC-MS/MS analysis; format: ADME, organism-based, Macaca fascicularis; settings: cynomolgus monkey, in vivo, 0.5 h
[15] = Cytotoxicity against rhesus monkey LLC-MK2 cells incubated for 5 days by MTS assay; format: toxicity, cell-based, Macaca mulatta; settings: time 5 day
[16] = Cytotoxicity against human Hep-2 cells incubated for 4 to 5 days by Cell Titer Glo assay; format: toxicity, cell-based; settings: time 4-5 day
[17] = system: Respiratory syncytial virus; experiment: (§1) Antiviral activity against RSV A2 infected in human airway epithelium transwell culture assessed as decrease in viral RNA level by measuring log10 reduction in median viral load at 0.05 uM pretreated at apical side for 3 hrs followed by compound washout and subsequent viral infection at apical side for 3 hrs followed by removal of virus and recurrent addition of compound on day 1 and 2 at basolateral side measured on day 3 by RT-qPCR analysis; format: functional; settings: time 75 hrs
[18] = Prodrug conversion in Normal human bronchial epithelial cells assessed as ((2R,3S,4R,5S)-5-(4-aminopyrrolo[2,1-f][1,2,4]triazin-7-yl)-2-cyano-3,4-dihydroxytetrahydrofuran-2-yl)methyl tetrahydrogen triphosphate formation measured per million cells at 10 uM incubated for 2 hrs by LC-MS/MS analysis; format: ADME, cell-based; settings: epithelial cell
[19] = system: Respiratory syncytial virus; experiment: Antiviral activity against RSV A2 infected in D-HBE-COPD cells assessed as inhibition of intracellular virus replication; format: functional, organism-based; settings: human respiratory syncytial virus
[20] = Drug concentration in lung of Cynomolgous monkey at lung-deposited dose of 4 mg/kg, IT measured after 24 hrs by LC-MS/MS analysis; format: ADME, organism-based, Macaca fascicularis; settings: cynomolgus monkey, in vivo, other
[21] = Drug metabolism in Cynomolgous monkey assessed as half life of (2R,3S,4R,5S)-5-(4-aminopyrrolo[2,1-f][1,2,4]triazin-7-yl)-3,4-dihydroxy-2-(hydroxymethyl)tetrahydrofuran-2-carbonitrile metabolite at lung-deposited dose of 4 mg/kg, IT measured after 24 hrs by LC-MS/MS analysis; format: ADME, organism-based, Macaca fascicularis; settings: cynomolgus monkey, in vivo, other
[22] = system: Respiratory syncytial virus; experiment: Antiviral activity against RSV infected in African green monkey assessed as reduction in viral replication in BAL at lung-deposited dose of 1.6 to 7.6 mg/kg, IT qd for 6 days measured for 15 days by RT-qPCR analysis relative to control; format: functional; parameters: scale not given: the % may be the effect or the level left; settings: dose 1.6-7.6 mg/kg, time 15 day, at 1.6 to 7.6 mg/kg
Human metapneumovirus = experiment: Anti-viral activity against hMPV CAN99-81 (A1 genotype) infected in rhesus monkey LLC-MK2 cells incubated for 90 mins; format: functional, organism-based; settings: LLC-MK2, 1.5 h
[23] = system: Respiratory syncytial virus; experiment: as §1, with “0” for “1 and 2”, “apical” for “basolateral”; format: functional; settings: time 75 hrs
[24] = Drug metabolism in Cynomolgous monkey assessed as Cmax of (2R,3S,4R,5S)-5-(4-aminopyrrolo[2,1-f][1,2,4]triazin-7-yl)-3,4-dihydroxy-2-(hydroxymethyl)tetrahydrofuran-2-carbonitrile metabolite at 5 mg/kg, iv measured after 30 mins by LC-MS/MS analysis; format: ADME, organism-based, Macaca fascicularis; settings: cynomolgus monkey, in vivo, 0.5 h
[25] = system: Respiratory syncytial virus; experiment: Antiviral activity against RSV A2 infected in D-HBE-As cells assessed as inhibition of intracellular virus replication; format: functional, organism-based; settings: human respiratory syncytial virus
SARS-CoV-2 = experiment: Anti-viral activity against SARS-CoV-2 infected in human A549 cells expressing hACE2 by firefly reporter assay; format: functional, organism-based; settings: Severe acute respiratory syndrome coronavirus 2, A549
[26] = system: Respiratory syncytial virus; experiment: as §1, with “0.25” for “0.05”; format: functional; settings: time 75 hrs
[27] = Half life in Cynomolgous monkey at 5 mg/kg, iv measured after 30 mins by LC-MS/MS analysis; format: ADME, organism-based, Macaca fascicularis; settings: cynomolgus monkey, in vivo
[28] = system: Respiratory syncytial virus; experiment: Antiviral activity against RSV A2 infected in Normal human bronchial epithelial cells incubated for 3 days by ONE-Glo luciferase assay; format: functional, organism-based; settings: A2, Epithelial cell, 72 h

Q: With `COC(=O)[C@H](C)N[P@](=O)(OC[C@@]1(C#N)O[C@@H](c2ccc3c(N)ncnn23)[C@H](OC(=O)C(C)C)[C@@H]1OC(=O)C(C)C)Oc1ccccc1` as the compound, how does the Activity [1] read?
A: The Activity was “inactive”.

Q: What about the IC50 [2] of the same compound?
A: Its IC50 is under 38 nM.

Q: What about the CC50 [3] of the same compound?
A: Its CC50 is over 2000 nM.

Q: What about the AUC [4] of the same compound?
A: The AUC was 2.55 µM·h.

Q: And the EC50 (enterovirus D68)?
A: The EC50 was 90 nM.

Q: And the CC50 [5]?
A: Its CC50 is 8300 nM.

Q: What about the Cmax [6] of the same compound?
A: Its Cmax is 1990 nM.

Q: And the CC50 [7]?
A: Its CC50 is over 2000 nM.

Q: And the EC50 [8]?
A: The EC50 was under 7 nM.

Q: What about the Activity [9] of the same compound?
A: The Activity was “Active”.

Q: What about the AUC(0-t) at 24 h [10] of the same compound?
A: Its AUC(0-t) at 24 h is 1.74 µM·h.

Q: What about the Drug metabolism [11] of the same compound?
A: Its Drug metabolism is 113.3 pM.

Q: What about the Cmax [12] of the same compound?
A: Its Cmax is 220 nM.

Q: And the AUC(0-t) at 0.5 h [13]?
A: The AUC(0-t) at 0.5 h was 0.962 µM·h.

Q: And the t1/2 [14]?
A: Its t1/2 is 8.71 h.

Q: What about the CC50 at 120 h [15] of the same compound?
A: Its CC50 at 120 h is over 2000 nM.

Q: What about the CC50 [16] of the same compound?
A: The CC50 was 22700 nM.

Q: And the Activity [17]?
A: The Activity was 0.5 log10/ml.

Q: What about the Drug metabolism [18] of the same compound?
A: Its Drug metabolism is 916 pM.

Q: What about the IC50 [19] of the same compound?
A: The IC50 was under 85 nM.

Q: And the Drug uptake [20]?
A: The Drug uptake was 20.5 nmol.

Q: And the t1/2 [21]?
A: Its t1/2 is 38.8 h.

Q: What about the Activity [22] of the same compound?
A: The Activity was over 99.99%.

Q: And the EC50 (Human metapneumovirus)?
A: Its EC50 is 210 nM.

Q: What about the Activity [23] of the same compound?
A: Its Activity is 0.2 log10/ml.

Q: What about the Cmax [24] of the same compound?
A: Its Cmax is 961 nM.

Q: And the IC50 [25]?
A: The IC50 was 97 nM.

Q: And the EC50 (SARS-CoV-2)?
A: Its EC50 is 4750 nM.

Q: And the Activity [26]?
A: Its Activity is 2.5 log10/ml.

Q: And the half-life [27]?
A: The half-life was 0.34 h.

Q: And the EC50 [28]?
A: The EC50 was 15 nM.
